Assay results from patent US20100145469A1, “BIOCERAMIC IMPLANTS HAVING BIOACTIVE SUBSTANCE” (priority 2007, published 2010).
Entries after “also recorded” stand apart in the source; their conditions may differ.

Test system: angiogenesis
Test: Peritoneal implantation of Y-pore bioceramic implants in mice for 15 days, wound tissue and angiogenesis patterns
Details: for tissue response in pores: mice
[1] = DCPD implant treated with VEGF at the blind end of the closed pore

Description: In order to produce model implants for the investigation of spatially localized release of both organic (VEGF), a Y shaped hemi-cylindrical pore channel was designed in the x-y plane of DCPD cuboids with dimensions 8 mm×8 mm×3 mm. The bioceramic endoprosthesis was made in two mirror image halves 50, 52 that keyed into one another to form a Y shaped pore 51a, 51b closed at one of the branched ends (see FIGS. 2A-2C). […] In the experiments, mouse VEGF solution was deposited at the end of the closed pore.
Wound tissue and angiogenesis patterns were examined for the implanted bioceramic endoprosthesis after peritoneal implantation of the bioceramic endoprosthesis in mice for 15 days.
For experimental analysis, VEGF-impregnated bioceramic materials were prepared by passive adsorption of 200 ng or 2 μg final amount of mouse VEGF (R&D, Cedarlane Laboratories Ltd., Canada) diluted in a 5 μl volume of Hank's balanced salt solution (HBSS). Adsorption of VEGF was performed on each half of the bioceramic endoprosthesis (see FIGS. 2A-2D) at the closed end (3) of the Y-shape pore. Specimens were air-dried under a sterile laminar flow hood. Prior to VEGF impregnation, the bioceramic materials were sterilized by soaking in 70% ethanol, followed by a HEPES-NaCl buffered solution rinse, HBSS (×3), and then air-dried. Control material specimens were also impregnated with HBSS without VEGF. Higher concentrations of VEGF (400 μg/ml) were also investigated.

“vascular endothelial growth factor [VEGF]” was tested, and the “microvessel formation (microscopic observation, FIG. 3A)” value [1] was “microvessel formation in the tissue only in the closed pore ends”, the “tissue in-growth (photographs, FIG. 3A)” value [1] was “well formed vascular tissue extended from the main pore opening to closed pore end” and the “tissue response in pores” value (DCPD implant, 200 ng VEGF deposited in closed pore ends, 15 days) was “vascular tissue throughout the pore channels; also recorded: Vascularised tissue was found inside the main open and closed pore channels”. For the same substance, the “tissue response in pores” value (DCPD implant, 2 μg VEGF deposited in pore ends, 15 days) was “vascular tissue throughout the pore channels”, the “angiogenic effect compared with untreated DCPD control (quantitative measurements)” value (DCPD implant, 15 days) was “significantly enhanced angiogenic effect” and the “tissue response in pores” value (HA implants containing VEGF, 15 days) was “very little tissue ingrowth”. For the same substance, the “vascularization pattern in pores” value (HA implants, 2 μg VEGF deposited in closed pore ends, 15 days implantation) was “mostly filled with clear connective tissue” and the “length of pore into which blood vessels extended” value (factor deposited at closed pore end of model implant, peritoneal implantation 15 days, factor-free controls 2 mm) was 7 mm.
